# Like-named read-outs stand apart in the source and are kept apart here.
# Assays:
# [1] = system: Black Mexican Sweet Corn cell suspension cultures; assay: Growth inhibition of maize cell suspension cultures; format: cell-based
# Description: Nonregenerable Black Mexican Sweet Corn cell suspension cultures (i.e., cell cultures which lack the ability to regenerate plants) were obtained from Dr. Burle Gengenbach, Department of Agronomy and Plant Genetics, University of Minnesota, St. Paul, Minn. Stock cell cultures were maintained in liquid Murashige and Skoog (MS) medium (Murashige and Skoog, 1962, Physiol. Plant 15: 473) containing 2 mg of 2,4-dichlorophenoxyaceticacid (2,4-D) per liter, and subcultured weekly by diluting to 1/10 the original volume with fresh medium. Cultures were grown in the dark at 26° C. in 500 ml flasks containing 125 ml media.
# (§1) Growth inhibition studies were carried out in 125 ml flasks containing 30 ml of test media. 997 was filter sterilized and added to cooling media following autoclaving. Test media were innoculated with cells to give a settled cell volume (15 minutes without centrifugation) of 0.2 ml per 10 ml of suspension. After either six or seven days growth settled cell volumes were again quantitated.
# To determine whether the effects of 214 were reversible, Black Mexican Sweet Corn cells growing in liquid suspension culture were exposed to 0.03 mg per liter 214 for various periods of time up to 72 hours. […] The cells were then washed with herbicide-free media and the growth rate evaluated again in the absence of herbicide.
# [2] = system: maize cell suspension cultures; assay: Reversal of herbicide growth inhibition by leucine, valine and isoleucine; format: cell-based; set-up: key to Cell suspension culture growth, (+) 997: settled cell volume, ml per 10 ml of suspension
# Description: as §1
# Cells were tested to determine whether the herbicide induced inhibition of growth was the result of the decreased availability of the three branched chain amino acids. Cells were exposed to toxic levels of 997 (1×10^-6 M) in media either supplemented with 1 mM concentrations of leucine, valine, and isoleucine or with no supplementation. Culture growth rates in the absence of amino acid supplementation and in the presence of 1×10^-6 M 997 were reduced to 16% that of herbicide free cultures.
# Experiments were conducted to determine the optimum supplementation levels of each of the three amino acids to obtain maximum herbicide protection and for gaining insight into the site of action of the compound.
# [3] = system: unselected maize callus tissue; assay: Callus culture growth inhibition, unselected tissue; format: cell-based; details: for IC50: Zea mays, 336 h
# Description: (§2) Therefore the effects of 214 were determined on callus growth. Quantities of tissue averaging 90 mg in size were transferred to nutrient agar maintenance media containing concentrations of 214 ranging from 0.003 to 3 mg per liter. Eight tissue pieces were placed on each plate with three plates per herbicide concentration. After 14 days growth, the tissue was weighed again.
# [4] = system: line XA17 tissue; assay: Callus growth inhibition, resistant line XA17; format: cell-based, maize; details: Zea mays, 336 h, read-out: level giving a 50% growth inhibition
# Description: as §2
# Initially, the maximum level of 214 in which line XA17 would grow stably was determined. Stock tissue which had been maintained in the presence of 0.1 mg per liter 214 was transferred to media containing 214 levels ranging up to 30 mg per liter. Tissue was maintained for several subculture intervals and the growth rate evaluated.
# [5] = system: AHAS activity of line XA17 tissue; assay: AHAS activity assay, line XA17 tissue; format: biochemical, maize; details: for IC50: AHAS activity of line XA17 tissue, read-out: concentration inhibiting AHAS activity 50%; for change in herbicide sensitivity of AHAS, line XA17 vs control, on a concentration basis: maize
# Description: Assays were conducted as a modification of the procedure of Smith et al. (1979, Molec. Gen. Genet. 169: 299-314). Plant cell culture material was ground with sand in a cold mortar and pestle in an equal quantity (w/v) of cell disruption media containing 0.05 M potassium phosphate (pH 7.0), 0.1 mM MgSO4, and 0.5 mM dithiothreitol. The preparation was centrifuged at 11,000×g for 20 minutes and the supernatant assayed for AHAS activity. Assays were conducted in 1 ml volumes containing 0.05 M potassium phosphate (pH 8.0), 40 mM pyruvate, 5 mM MgCl2, 0.1 mM thiamine pyrophosphate, 0.2 ml cell extract, and various concentrations of the herbicide of interest. The reaction mixtures were incubated at 30° C. for 75 minutes and the reaction terminated with the addition of 0.1 ml of 50% (v/v) H2 SO4. Following further incubation at 40° C. for 20 minutes, the acetoin formed from acetolactate by acidification was quantitated using the method of Westerfield (1945, J. Biol. Chem. 161: 495). To 0.2 ml of reaction mixture, 0.8 ml of water, 0.5 ml of 0.5% (w/v) creatine, and 0.5 ml of 5% (w/v) naphthol in 10% (w/v) NaOH was added. After mixing, solutions were incubated at room temperature for one hour. The development of pink color was quantitated by measuring light absorbance at 530 nm.
# Assays were conducted to determine if acetohydroxyacid synthase extracted from line XA17 tissue was altered with respect to herbicide sensitivity. Such a change would signify that an alteration of this enzyme conferred the herbicide resistance. Assays were conducted as described supra.
# [6] = system: Callus tissue from line QJ22; assay: Callus growth inhibition, line QJ22; format: cell-based, maize; details: line QJ22 vs control tissue; based on herbicide amount giving 50% reduction in growth rate
# Description: (§3) Callus tissue from line QJ22 was tested also with the compound 567. The numbers represent the fold increase in herbicide concentration that can be tolerated by each of the cell lines as compared to control tissue. The values were calculated based on the amount of herbicide that gave a 50% reduction in growth rate.
# [7] = system: Callus tissue from line UV18; assay: Callus growth inhibition, line UV18; format: cell-based, maize; details: for Callus Growth Fold Increase in Tolerance: line UV18 vs control tissue, based on herbicide amount giving 50% reduction in growth rate
# Description: The UV18 cell line was first observed after 25 weeks of selection comprising 9 subculture intervals. The tissue in the selection procedure had been exposed to 0.1 mg per liter 214 for four subculture intervals followed by exposure to 0.3 mg per liter 214 for four subculture intervals. UV18 was identified during the ninth subculture as a rapidly growing sector of tissue with good morphology.
# as §3
# [8] = read-out: level giving a 50% growth inhibition
compound,measurement,setting,value
"CC(C)C1(C)NC(c2nc3ccccc3cc2C(=O)O)=NC1=O (centres unmarked) [compound 214, 2-(5-isopropyl-5-methyl-4-oxo-2-imidazolin-2-yl)3-quinolinecarboxylic acid]",Growth of cells in liquid suspension culture,"[1]; 0.03 mg per liter 214, up to 72 hours",completely inhibited
same,growth rate after washing with herbicide-free media,[1]; after exposure to 0.03 mg per liter 214 up to 72 hours,rapidly return to an uninhibited growth rate
same,"effect of media supplementation with leucine, isoleucine, valine on growth inhibition","[2]; 1 mM each of leucine, isoleucine, and valine, cell suspension cultures",reversed the growth inhibitory effects
same,Cell death,"[3]; 14 day period, 0.003 to 3 mg per liter",not observed to occur
same,IC50,[3]; read-out: concentration giving half maximal inhibition of callus growth rate,0.1 to 0.3 µg/mL
same,IC50,[3]; [8],0.1 to 0.3 µg/mL
same,IC50,[4],30 µg/mL
same,IC50,[5],3 to 30 mM
same,"change in herbicide sensitivity of AHAS, line XA17 vs control, on a concentration basis",[5],≥ 1000 fold
same,Callus Growth Fold Increase in Tolerance,[6],5 fold
same,growth of UV18 tissue in presence of herbicide,"[7]; 0.3 mg per liter 214, vs control tissue in the absence of herbicide",grew as rapidly
same,Callus Growth Fold Increase in Tolerance,[7],100 fold
"CC(C)C1(C)NC(c2ncccc2C(=O)O)=NC1=O (centres unmarked) [compound 997, 2-(5-isopropyl-5-methyl-4-oxo-2-imidazolin-2-yl)nicotinic acid]",herbicide concentration giving 50% growth inhibition,"[1]; suspension cultures, concentration in the media, settled cell volume after six or seven days",1 to 3×10^-8 M
same,"Cell suspension culture growth, (+) 997",[2]; 0.3 ile,.33
same,"Cell suspension culture growth, (+) 997",[2]; 0.3 leu,.29
same,"Cell suspension culture growth, (+) 997",[2]; 0.3 val,.48
same,Culture growth rate relative to control cultures,"[2]; 1×10^-6 M 997, media supplemented with 1 mM leucine, valine, and isoleucine",91%
same,"effect of media supplementation with leucine, valine, isoleucine on growth inhibition",[2]; 997 ranging in concentration from 1×10^-8 to 1×10^-3 M,could reverse the growth inhibitory effects
same,"Cell suspension culture growth, (+) 997","[2]; Leucine, Valine, Isoleucine 1,1,1",1.88
same,"Cell suspension culture growth, (+) 997","[2]; Leucine, Valine, Isoleucine 1,1,.1",.93
same,"Cell suspension culture growth, (+) 997","[2]; Leucine, Valine, Isoleucine 1,1,.3",1.55
same,"Cell suspension culture growth, (+) 997","[2]; Leucine, Valine, Isoleucine 1,.1,1",1.28
same,"Cell suspension culture growth, (+) 997","[2]; Leucine, Valine, Isoleucine 1,.1,.1",1.03
same,"Cell suspension culture growth, (+) 997","[2]; Leucine, Valine, Isoleucine 1,.1,.3",1.38
same,"Cell suspension culture growth, (+) 997","[2]; Leucine, Valine, Isoleucine 1,.3,1",1.45
same,"Cell suspension culture growth, (+) 997","[2]; Leucine, Valine, Isoleucine 1,.3,.1",.98
same,"Cell suspension culture growth, (+) 997","[2]; Leucine, Valine, Isoleucine 1,.3,.3",1.40
same,"Cell suspension culture growth, (+) 997","[2]; Leucine, Valine, Isoleucine .1,1,1",.60
same,"Cell suspension culture growth, (+) 997","[2]; Leucine, Valine, Isoleucine .1,1,.1",.83
same,"Cell suspension culture growth, (+) 997","[2]; Leucine, Valine, Isoleucine .1,1,.3",.68
same,"Cell suspension culture growth, (+) 997","[2]; Leucine, Valine, Isoleucine .1,.1,1",.58
same,"Cell suspension culture growth, (+) 997","[2]; Leucine, Valine, Isoleucine .1,.1,.1",.70
same,"Cell suspension culture growth, (+) 997","[2]; Leucine, Valine, Isoleucine .1,.1,.3",.68
same,"Cell suspension culture growth, (+) 997","[2]; Leucine, Valine, Isoleucine .1,.3,1",.80
same,"Cell suspension culture growth, (+) 997","[2]; Leucine, Valine, Isoleucine .1,.3,.1",.75
same,"Cell suspension culture growth, (+) 997","[2]; Leucine, Valine, Isoleucine .1,.3,.3",.90
same,"Cell suspension culture growth, (+) 997","[2]; Leucine, Valine, Isoleucine .3,1,1",1.30
same,"Cell suspension culture growth, (+) 997","[2]; Leucine, Valine, Isoleucine .3,1,.1",1.08
same,"Cell suspension culture growth, (+) 997","[2]; Leucine, Valine, Isoleucine .3,1,.3",1.30
same,"Cell suspension culture growth, (+) 997","[2]; Leucine, Valine, Isoleucine .3,.1,1",.80
same,"Cell suspension culture growth, (+) 997","[2]; Leucine, Valine, Isoleucine .3,.1,.1",.70
same,"Cell suspension culture growth, (+) 997","[2]; Leucine, Valine, Isoleucine .3,.1,.3",.95
same,"Cell suspension culture growth, (+) 997","[2]; Leucine, Valine, Isoleucine .3,.3,1",1.08
same,"Cell suspension culture growth, (+) 997","[2]; Leucine, Valine, Isoleucine .3,.3,.1",.95
same,"Cell suspension culture growth, (+) 997","[2]; Leucine, Valine, Isoleucine .3,.3,.3",1.18
same,"Cell suspension culture growth, (+) 997",[2]; No Supplementation (4 replicates),0.30
same,activity at 1 µM,"[2]; Zea mays, 1×10^-6 M 997, absence of amino acid supplementation, read-out: Culture growth rate relative to herbicide free cultures",16%
same,IC50,[3]; [8],0.1 to 0.3 µg/mL
same,IC50,[4],> 30 µg/mL
same,IC50,[5],3 to 30 mM
same,"change in herbicide sensitivity of AHAS, line XA17 vs control, on a concentration basis",[5],≥ 1000 fold
same,Callus Growth Fold Increase in Tolerance,[6],30-50 fold
same,Callus Growth Fold Increase in Tolerance,[7],100 fold
